Experimental data published in ChEMBL document CHEMBL3751695, “Cationic lipid-conjugated hydrocortisone as selective antitumor agent” (Eur J Med Chem, 2016).
Calls of active or inactive are those of the source. The calls are words filed in the database; no cut-off is given here.

Tests used:
B16-F10 [1] = test: Antitumor activity in mouse B16F10 cells xenografted in C57BL/J mouse assessed as increase of apoptotic protein cleaved caspase 9 level in tumor lysates at 10 mg/kg, ip by western blot analysis; assay type: functional, organism-based; conditions: Neoplasm, Lysate
B16-F10 [2] = test: Induction of apoptosis in mouse B16F10 cells assessed as increase in cleaved caspase 3 level at 10 uM after 36 hrs by western blot analysis; assay type: functional, cell-based
Gallus gallus [3] = species on record: Gallus gallus; test: Antiangiogenic activity in chicken embryo assessed as inhibition of neovascularization at 40 uM after 4 hrs by microscopic analysis; assay type: functional, tissue-based
[4] = Induction of apoptosis in mouse NIH/3T3 cells assessed as late apoptotic cells at 20 uM after 24 hrs by annexin-V-FITC/propidium iodide staining based flow cytometry (reference value: 0.28 %); assay type: cell-based; conditions: nih3t3, 24 h
B16-F10 [5] = test: Inhibition of cell migration in mouse B16F10 cells at 20 uM after 36 hrs by wound healing assay; assay type: functional, cell-based
B16-F10 [6] = test: Induction of apoptosis in mouse B16F10 cells assessed as increase in cytochrome C level at 20 uM after 36 hrs by western blot analysis; assay type: functional, cell-based
Gallus gallus [7] = species on record: Gallus gallus; test: Antiangiogenic activity in chicken embryo assessed as complete degradation of existing blood vessels at 80 uM after 4 hrs by microscopic analysis; assay type: functional, tissue-based; conditions: Blood vessel
[8] = Induction of apoptosis in mouse NIH/3T3 cells assessed as necrotic cells at 20 uM after 24 hrs by annexin-V-FITC/propidium iodide staining based flow cytometry (reference value: 0.24 %); assay type: cell-based; conditions: nih3t3, 24 h
A549 [9] = test: Cytotoxicity against human A549 cells at 5 and 10 uM after 72 hrs cells pretreated with 50 uM of RU486 for 4 hrs by MTT assay; assay type: functional, cell-based
[10] = Cytotoxicity against mouse NIH/3T3 cells after 72 hrs by MTT assay; assay type: cell-based; conditions: NIH3T3, 72 h
A549 [11] = test: Induction of apoptosis in human A549 cells assessed as viable cells at 20 uM after 24 hrs by annexin-V-FITC/propidium iodide staining based flow cytometry (reference value: 87.96 %); assay type: functional; conditions: A549, 24 h, read-out: Activity
[12] = Cell cycle arrest in mouse B16F10 cells assessed as accumulation at G1 phase at 20 uM after 24 hrs by propidium iodide staining based flow cytometry (reference value: 38.8 %); assay type: functional; conditions: B16-F10
[13] = Cytotoxicity against mouse B16F10 cells after 72 hrs by MTT assay; assay type: functional, cell-based; conditions: B16-F10, 72 h
HeLa = test: Cytotoxicity against human HeLa cells after 72 hrs by MTT assay; assay type: functional, cell-based
[14] = Cytotoxicity against human SKOV3 cells after 72 hrs by MTT assay; assay type: functional, cell-based; conditions: SK-OV-3, 72 h
[15] = Cell cycle arrest in mouse B16F10 cells assessed as increase in cyclin B1 level at 20 uM by flow cytometric analysis; assay type: functional, cell-based; conditions: B16-F10
B16-F10 [16] = test: Induction of apoptosis in mouse B16F10 cells assessed as increase in ratio of Bax/Bcl2 level at 10 uM after 36 hrs by western blot analysis (reference value: 0.2); assay type: functional
A549 [17] = test: Cytotoxicity against human A549 cells after 72 hrs by MTT assay; assay type: functional, cell-based; conditions: A549, 72 h
A549 [18] = test: Induction of apoptosis in human A549 cells assessed as late apoptotic cells at 20 uM after 24 hrs by annexin-V-FITC/propidium iodide staining based flow cytometry (reference value: 7.40 %); assay type: functional
MDA-MB-231 = test: Induction of apoptosis in human MDA-MB-231 cells assessed as necrotic cells at 20 uM after 24 hrs by annexin-V-FITC/propidium iodide staining based flow cytometry (reference value: 5.40 %); assay type: functional
B16-F10 [19] = test: Induction of apoptosis in mouse B16F10 cells assessed as increase in cleaved caspase 3 level at 20 uM after 36 hrs by western blot analysis; assay type: functional, cell-based
[20] = Antitumor activity in mouse B16F10 cells xenografted in C57BL/J mouse assessed as increase in ratio of Bax/Bcl2 in tumor lysates at 10 mg/kg, ip by western blot analysis (reference value: 0.4); assay type: functional, Neoplasm, B16-F10

CCCCCCCCCCCCCCCC[N+](C)(CCCCCCCCCCCCCCCC)CCNC(=O)[C@@]1(O)CC[C@H]2[C@@H]3CCC4=CC(=O)CC[C@]4(C)[C@H]3[C@@H](O)C[C@@]21C.[Cl-]
Activity (B16-F10 [1]): Active | Activity (B16-F10 [2]): Active | inhibition (Gallus gallus [3]): Active | Activity [4]: 0.55% | inhibition (B16-F10 [5]): Active | Activity (B16-F10 [6]): Active | Activity (Gallus gallus [7]): Active | Activity [8]: 0.51% | Activity (A549 [9]): Active | IC50 [10]: 20 µM | viability at 20 µM (A549 [11]): 25.1% | Activity [12]: 33.8% | IC50 [13]: 6.2 µM | IC50 (HeLa): 5.2 µM | IC50 [14]: 3.5 µM | Activity [15]: Active | Ratio (B16-F10 [16]): 0.4 | IC50 (A549 [17]): 2.5 µM | Activity (A549 [18]): 66.05% | Activity (MDA-MB-231): 4.45% | Activity (B16-F10 [19]): Active | Ratio [20]: 2.1
